From ChEMBL document CHEMBL1156337, “Synthesis and evaluation of novel benzothiazole derivatives based on the bithiophene structure as potential radiotracers for beta-amyloid plaques in Alzheimer's disease” (Bioorg Med Chem, 2010) come the findings set out here.

Calls of active or inactive are those of the source. The calls are words filed in the database; no cut-off is given here.

As usually defined, the Ki is a dissociation constant, usually derived from enzyme kinetics or from competition with a known ligand.

Assay [1] in a line: Binding affinity to amyloid beta (1 to 40) aggregates after 2 hrs by saturation binding method.
A short description of assay [2]: Binding affinity to amyloid beta (1 to 42) aggregates after 2 hrs by saturation binding method.
Assay [3] is described as follows: Displacement of [125I]TZDM from amyloid beta (1 to 42) aggregates after 2 hrs. For orientation: Loss of bound radioactivity is the signal in a displacement assay; it reports binding, not function.
Assay [4] in a line: Displacement of [125I]TZDM from amyloid beta (1 to 40) aggregates after 2 hrs.
Assay [5] is described as follows: Binding affinity to amyloid beta aggregates.
The species named for the next assay is Mus musculus. Nature of the assay: Binding affinity to beta amyloid plaques in brain sections of TgC57 transgenic mouse transfected with APP and PS1 double mutant after 10 mins using thioflavin-S stain. Type of assay: tissue-based.

With `CN(C)c1ccc(-c2nc3ccc([125I])cc3s2)cc1`, the Ki worked out at 0.09 nM in assay [1] and 0.13 nM in assay [2].

With `CN(C)c1ccc(-c2nc3ccc(I)cc3s2)cc1`, the Ki in assay [3] is 0.9 nM; in assay [4], 2.2 nM.

In assay [5], `N#CC(C#N)=Cc1ccc(-c2ccc(-c3ccc(O)cc3)s2)s1` showed a Ki of 10 nM.

As for `CN(C)c1ccc(-c2cn3cc(I)ccc3n2)cc1`, in assay [3], the Ki was […].

For `COc1ccc2nc(-c3ccc(-c4ccc(Br)s4)s3)sc2c1`, the Ki in assay [3] stood at 0.21 nM; in assay [4], 1.28 nM. The result in the assay listed under Mus musculus was Active.

Regarding `COc1ccc2nc(-c3ccc(-c4cccs4)s3)sc2c1`, the inhibitory constant (Ki) in assay [3] was found to be 2.09 nM; in assay [4], 0.6 nM. In addition, the outcome in the assay listed under Mus musculus was Active.
